Tests used:
[1] = test system: ryegrass, Italian; assay: Test D pre-/postemergence herbicide test; type: in vivo, Lolium multiflorum; settings: for Plant response rating: Postemergence, Ryegrass, Italian, scale 0 to 100; for Plant response rating, Ryegrass, Italian: Preemergence, scale 0 to 100 (0 no effect, 100 complete control)
Excerpt: (§1) Seeds of plant species selected from bluegrass (annual bluegrass, Poa annua), blackgrass (Alopecurus myosuroides), canarygrass (littleseed canarygrass, Phalaris minor), chickweed (common chickweed, Stellaria media), galium (catchweed bedstraw, Galium aparine), bromegrass, downy (downy bromegrass, Bromus tectorum), field poppy (Papaver rhoeas), field violet (Viola arvensis), foxtail, green (green foxtail, Setaria viridis), deadnettle (henbit deadnettle, Lamium amplexicaule), ryegrass, Italian (Italian ryegrass, Lolium multiflorum), kochia (Kochia scoparia), lambsquarters (Chenopodium album), oilseed rape (Brassica napus), pigweed (Amaranthus retroflexus), chamomile (scentless chamomile, Matricaria inodora), Russian thistle (Salsola kali), speedwell (bird's-eye speedwell, Veronica persica), barley, spring (spring barley, Hordeum vulgare), wheat, spring (spring wheat, Triticum aestivum), buckwheat, wild (wild buckwheat, Polygonum convolvulus), mustard, wild (wild mustard, Sinapis arvensis), oat, wild (wild oat, Avena fatua), radish, wild (wild radish, Raphanus raphanistrum), […]), barley, winter (winter barley, Hordeum vulgare), and wheat, winter (winter wheat, Triticum aestivum) were planted into a silt loam soil and treated preemergence with test chemicals formulated in a non-phytotoxic solvent mixture which included a surfactant. At the same time, these species were planted in pots containing Redi-Earth® planting medium (Scotts Company, 14111 Scottslawn Road, Marysville, Ohio 43041) comprising spaghnum peat moss, vermiculite, wetting agent and starter nutrients and treated with postemergence applications of the test chemicals formulated in the same manner. Plants ranged in height from 2 to 18 cm (1- to 4-leaf stage). Treated plants and controls were maintained in a controlled growth environment for 7 to 21 days after which time all species were compared to controls and visually evaluated. Plant response ratings, summarized in Table D, are based on a scale of 0 to 100 where 0 is no effect and 100 is complete control. A dash (-) response means no test result.

[2] = test system: deadnettle; assay: Test D pre-/postemergence herbicide test; type: in vivo, Lamium amplexicaule; settings: for Plant response rating: Deadnettle, scale 0 to 100; for Plant response rating, Deadnettle: scale 0 to 100 (0 no effect, 100 complete control)
Excerpt: as §1

[3] = test system: sprangletop, Brdd.; assay: Test F flood (paddy) test; type: in vivo, Leptochloa fascicularis; settings: 21 d, scale 0-100
Excerpt: Three plastic pots (ca. 16-cm diameter) per rate were partially filled with sterilized Tama silt loam soil comprising a 35:50:15 ratio of sand, silt and clay and 2.6% organic matter. Separate plantings for each of the three pots were as follows. Seeds from the U.S. of monochoria (Monochoria vaginalis), sedge, umbrella (small-flower umbrella sedge, Cyperus difformis), bulrush, […] bulrush, Scirpus juncoides), and […] (purple […] coccinea), were planted into one 16-cm pot for each rate. Seeds from the U.S. of flatsedge, rice (rice flatsedge, Cyperus iria), sprangletop, Brdd. (bearded sprangletop, Leptochloa fascicularis), one stand of 9 or 10 water seeded rice seedlings (Rice, W.S. Jap, Oryza sativa cv. 'Japonica-[…]' or Rice, W.S. Ind, 'Indica'), and two stands of 3 or 4 seedlings of rice, transplanted (transplanted rice, Oryza sativa cv. 'Japonica-[…]') were planted into one 16-cm pot for each rate. Seeds from the U.S. of barnyardgrass (Echinochloa crus-galli), […] (common […], Alisma plantago-aquatica), and watergrass, late (late watergrass, Echinochloa oryzicola) were planted into one 16-cm pot for each rate. Plantings were sequential so that crop and weed species were at the 2.0 to 2.5-leaf stage at time of treatment. Potted plants were grown in a greenhouse with day/night temperature settings of 30/27° C., and supplemental balanced lighting was provided to maintain a 16-h photoperiod. Test pots were maintained in the greenhouse until test completion. At time of treatment, test pots were flooded to 3 cm above the soil surface, treated by application of test compounds directly to the paddy water, and then maintained at that water depth for the duration of the test. Effects of treatments on rice and weeds were visually evaluated by comparison to untreated controls after 21 d. Plant response ratings, summarized in Table F, are based on a scale of 0 to 100 where 0 is no effect and 100 is complete control. A dash (-) response means no test result.

Structure (SMILES) | Plant response rating ([1]; 16 g ai/ha) | Plant response rating ([1]; 31 g ai/ha) | Plant response rating ([1]; 62 g ai/ha) | Plant response rating ([1]; 125 g ai/ha) | Plant response rating ([1]; 250 g ai/ha) | Plant response rating, Ryegrass, Italian ([1]; 62 g ai/ha) | Plant response rating, Ryegrass, Italian ([1]; 125 g ai/ha) | Plant response rating, Ryegrass, Italian ([1]; 16 g ai/ha) | Plant response rating, Ryegrass, Italian ([1]; 31 g ai/ha) | Plant response rating, Ryegrass, Italian ([1]; 250 g ai/ha) | Plant response rating ([2]; Postemergence, 31 g ai/ha) | Plant response rating ([2]; Postemergence, 62 g ai/ha) | Plant response rating ([2]; Postemergence, 125 g ai/ha) | Plant response rating, Deadnettle ([2]; Preemergence, 62 g ai/ha) | Plant response rating, Deadnettle ([2]; Preemergence, 31 g ai/ha) | Plant response rating ([2]; Preemergence, 125 g ai/ha) | Plant response rating ([2]; Preemergence, 250 g ai/ha) | Plant response rating, Sprangletop, Brdd. ([3]; 125 g ai/ha) | Plant response rating, Sprangletop, Brdd. ([3]; 250 g ai/ha) | Plant response rating, Sprangletop, Brdd. ([3]; 500 g ai/ha) | also measured
O=C1NCC(c2ccc(F)c(F)c2)C1C(=O)Nc1ccccc1C(F)(F)F (racemic) [Compound 6] | 0 | 0 | 0 | 0 | 0 | 0 | 0 | 0 | 0 | 0 | 0 | 0 | 10 | 0 | 0 | 40 | 40 | – | – | – | Plant response rating ([2]; Postemergence, 16 g ai/ha): 0; Plant response rating ([2]; Postemergence, 250 g ai/ha): 10; Plant response rating, Deadnettle ([2]; Preemergence, 16 g ai/ha): 0
O=C1NCC(c2ccc(F)c(C(F)(F)F)c2)C1C(=O)Nc1cccc(F)c1F (racemic) [Compound 77] | – | – | – | – | – | 15 | 25 | – | 15 | 35 | – | – | – | 65 | 15 | 60 | 75 | – | – | – | –
O=C1NCC(c2ccc(F)c(F)c2)C1C(=O)Nc1cccc(F)c1F (racemic) [Compound 101] | – | – | – | – | – | – | – | – | – | – | – | – | – | – | – | – | – | 85 | 95 | 95 | Plant response rating, Sprangletop, Brdd. ([3]; 64 g ai/ha): 75
O=C1NCC(c2cccc(C(F)F)c2)C1C(=O)Nc1ccccc1F (racemic) [Compound 210] | – | – | – | – | – | – | – | – | – | – | – | – | – | – | – | – | – | 100 | 100 | 100 | –
O=C1NCCC1C(=O)N(c1ccc(F)c(F)c1)c1ccccc1F (stereo not drawn) [Compound 5, N-(3,4-difluorophenyl)-N-(2-fluorophenyl)-2-oxo-3-pyrrolidinecarboxamide] | – | – | – | – | – | – | – | – | – | – | – | – | – | – | – | – | – | 85 | 85 | 85 | Plant response rating, Sprangletop, Brdd. ([3]; 1000 g ai/ha): 85; Plant response rating, Sprangletop, Brdd. ([3]; 2000 g ai/ha): 90
O=C1NCC(c2cc(F)c(F)cc2F)C1C(=O)Nc1cccc(F)c1F (stereo not drawn) [Compound 50] | 0 | 0 | 0 | 0 | – | 0 | 0 | 0 | 0 | – | 0 | 0 | 0 | 100 | 50 | 100 | – | – | – | – | Plant response rating ([2]; Postemergence, 16 g ai/ha): 0; Plant response rating, Deadnettle ([2]; Preemergence, 16 g ai/ha): 50
O=C1NCC(c2ccc(Cl)c(F)c2)C1C(=O)Nc1cccc(F)c1F (stereo not drawn) [Compound 52] | 0 | 0 | 0 | 0 | 0 | 0 | 0 | 40 | 0 | 0 | 0 | 0 | 20 | 0 | 0 | 0 | 30 | – | – | – | Plant response rating ([2]; Postemergence, 16 g ai/ha): 0; Plant response rating ([2]; Postemergence, 250 g ai/ha): 25; Plant response rating, Deadnettle ([2]; Preemergence, 16 g ai/ha): 0
O=C1NCC(c2ccc(C(F)(F)F)cc2)C1C(=O)Nc1ccccc1F (stereo not drawn) [Compound 231] | – | 0 | 0 | 0 | 0 | 0 | 0 | – | 0 | 0 | 35 | 70 | 35 | 75 | 35 | – | 85 | – | – | – | Plant response rating ([2]; Postemergence, 250 g ai/ha): 70; Plant response rating, Deadnettle ([2]; Preemergence, 125 g ai/ha): 60
CN1CC(c2ccc(F)c(F)c2)C(C(=O)Nc2cccc(F)c2F)C1=O (stereo not drawn) [Compound 303] | – | – | – | – | – | – | – | – | – | – | – | – | – | – | – | – | – | 80 | 85 | 90 | Plant response rating, Sprangletop, Brdd. ([3]; 62 g ai/ha): 70
